Results: patent US11648239B2, “Azophenols as ERG oncogene inhibitors” (The Henry M. Jackson Foundation for the Advancement of …, priority 2015, dated 2023)

How the values were obtained:
ERG protein = target: T1, ERG protein (Homo sapiens, UniProt P11308); test: Inhibition of ERG protein in VCaP cells (Western blot); assay type: cell-based; conditions: VCaP, metastatic prostate cancer, TMPRSS2-ERG fusion; N/D = assay performed, inhibition not detected at the tested levels
T1 construct: host or cells: VCaP
T1 sequence (P11308 33-479 limits assumed): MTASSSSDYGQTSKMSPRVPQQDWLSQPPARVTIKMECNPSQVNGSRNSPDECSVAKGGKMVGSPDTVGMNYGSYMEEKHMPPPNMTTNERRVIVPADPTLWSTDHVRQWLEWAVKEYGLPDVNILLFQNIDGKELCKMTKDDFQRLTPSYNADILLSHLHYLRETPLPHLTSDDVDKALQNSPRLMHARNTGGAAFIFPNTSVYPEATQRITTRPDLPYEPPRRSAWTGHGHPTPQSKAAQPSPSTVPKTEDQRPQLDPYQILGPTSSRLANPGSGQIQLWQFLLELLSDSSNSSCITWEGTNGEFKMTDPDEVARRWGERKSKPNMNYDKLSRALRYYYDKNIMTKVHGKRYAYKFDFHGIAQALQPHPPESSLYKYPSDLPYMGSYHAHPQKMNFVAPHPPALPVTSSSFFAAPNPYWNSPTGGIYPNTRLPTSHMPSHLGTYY
Procedure: The TMPRSS2-ERG fusion positive prostate cancer cell line, VCaP (ATCC), was used to identify the test compound inhibitors of ERG expression. Cells were grown in medium using conditions prescribed by the vendor. VCaP cells in logarithmic growth were seeded in a tissue culture dish at a cell density of 2×10^6 cells per plate. Following 48 hours incubation at 37° C., cells were exposed for a period of 48 hours with 0, 0.05, 0.25 and 0.5 μM concentrations of each test azophenol compound. The inhibition of ERG expression was evaluated by an In-cell Western blot assay (LI-COR Biosciences, Lincoln, Nebr.) using the ERG specific CPDR ERG-MAb as further described below.
Inhibition of ERG protein expression by the test compounds were determined by Western blot analysis. The ERG specific monoclonal antibody CPDR ERG-MAb was used as the primary antibody. In brief, Western blot was performed by running a fixed amount of total protein extracted from cell lysates of the treated cells using (4-12% Bis-Tris) gel by electrophoresis, followed by transfer to membrane and incubation with primary antibody and continued with HRP-conjugated secondary antibody. Cultured cells were treated at specific dosages with each of the tested ERG inhibitors. Following incubation of the treated cells for an indicated time period, cells were lysed using Mammalian Protein Extraction Reagent (M-PER; Pierce, Rockford, Ill.) containing a protease inhibitor cocktail and phosphatase inhibitor cocktails I & III (Sigma, St Louis, Mo.). Cell lysates containing 50 μg of total protein were electrophoresed through 4-12% Bis-Tris Gel (Invitrogen, Carlsbad, Calif.) and the cellular proteins were transferred to PVDF membrane (Invitrogen, Carlsbad, Calif.). Membranes were incubated at 4° C. for 12 hours with primary antibodies for AR, PSA, GAPDH, α-Tubulin, apoptosis markers and cell cycle regulators. Following exposure to primary antibodies, the membranes were washed with buffer (3×, 5 minutes each at room temperature) followed by incubation with relevant secondary antibodies for 1 hour at 24° C. Finally, the membranes were washed with buffer and developed using the ECL Western blot detection reagent (GE Health Care, Buckinghamshire, UK). The ERG protein expression of the test azophenol compounds were normalized with GAPDH.
In brief, ERG positive VCaP cells in loganthmic growth phase were plated in 10 cm tissue culture dish at a cell density of 2×10^6 cells per dish. The plated cells were treated with 0, 0.2, 0.4, 0.6, 0.8 and 1 μM concentrations of each azophenol compound for a period of 48 hours. Cells from each dish were then processed for Western blot analysis and alterations in the expression of ERG protein were monitored. Both ERG and GAPDH protein band were quantified from each concentration using Image J (NIH) and ERG band density was normalized with corresponding GAPDH protein control. Relative density of ERG in each concentration was calculated and with Graphpad Prism 6 software, the IC50 of each compound was calculated.

VCaP cells = test: VCaP cell growth inhibition; assay type: cell-based; conditions: for inhibition of VCaP cell growth: 0.3, 0.6, 1.0, 3.0 and 10.0 μM, FIG. 25-30; for IC50: VCaP, metastatic prostate cancer, TMPRSS2-ERG fusion, N/D = assay performed, inhibition not detected at the tested levels
Procedure: Approximately 48 hours following plating of cells, the appropriate test compound is added to each well of the tissue culture dish at a predetermined concentration. The medium was replenished every 24 hours with fresh growth medium containing the same concentration of the same test compound for indicated period of the cell growth inhibition assay. Percent cell growth inhibition was calculated using a hemocytometer for estimating cell density in each of the test wells of the tissue culture dish and trypan blue dye exclusion microscopy and photography to estimate the fraction of viable cells in each test well.
To investigate whether the azophenol compounds selectively arrested the growth of ERG positive cancer cells (VCaP), VCaP cells were cultured to achieve cells in logarithmic growth and these cells were then plated in 6 well tissue culture dishes in duplicates at a cell density of 0.2×10^6 cells per well. The plated cells were exposed to 0, 0.2, 0.4, 0.6, 0.8 and 1 μM concentrations of each compound for a period of 8 days. At the end of time period, cells were recovered from the test plate, washed, trypsinized and the cell density of viable cells were determined with trypan blue dye staining method and automated cell counter Bio-Rad TC10. The IC50 of cell growth inhibition of each compound was determined by trypsinizing the cells at the end of the experiment and counting the cells by using the automated cell counter (Bio-Rad TC10 automated cell counter). The average cell numbers of each concentration were used to calculate the IC50 of each compound with the GraphPad Prism 6 software.

Row | SMILES | IC50 (ERG protein) [µM] | inhibition of VCaP cell growth (VCaP cells) | IC50 (VCaP cells) [µM]
1 | Cc1cc(N=Nc2nccs2)c(O)cc1O [Compound 3] | 1.35 | inhibition | 4.07
2 | Cc1cc(O)cc(O)c1N=Nc1nccs1 [Compound 4] | 1.85 | inhibition | 1.12
